Consider 1 substance from ChEMBL document CHEMBL4316596, “Antimicrobial Peptides with High Proteolytic Resistance for Combating Gram-Negative Bacteria” (J Med Chem, 2019).

Activity calls are given as the source filed them. The rule behind the calls is not given here.

The nature of data set [1]: Renal toxicity in ICR mouse assessed as effect on BUN levels in serum at 40 mg/kg, ip administered every 12 hrs for 3 days measured at 72 hrs post dose. Format: organism-based. To be noted: in vivo.
The test system of the next data set is Escherichia coli. Nature of the data set: Bactericidal activity against Escherichia coli O111:B4 assessed as reduction in colony forming units at MBC after 90 mins in presence of LPS. The format is functional, organism-based.

For the substance H-IRPIIRPIIRPIIRPIIRPIIRPIIRPI-NH2, in data set [1], the Activity result was “Non-Toxic”. Besides, the outcome with Escherichia coli was inactive.
